Experimental findings from BindingDB's records for doi:10.1016/j.bmcl.2012.10.040 (Pfizer, 2013) are described below.

The target of test [1] is T1, Prostaglandin G/H synthase 2 (Homo sapiens, UniProt P35354).
T1 sequence (P35354 whole entry): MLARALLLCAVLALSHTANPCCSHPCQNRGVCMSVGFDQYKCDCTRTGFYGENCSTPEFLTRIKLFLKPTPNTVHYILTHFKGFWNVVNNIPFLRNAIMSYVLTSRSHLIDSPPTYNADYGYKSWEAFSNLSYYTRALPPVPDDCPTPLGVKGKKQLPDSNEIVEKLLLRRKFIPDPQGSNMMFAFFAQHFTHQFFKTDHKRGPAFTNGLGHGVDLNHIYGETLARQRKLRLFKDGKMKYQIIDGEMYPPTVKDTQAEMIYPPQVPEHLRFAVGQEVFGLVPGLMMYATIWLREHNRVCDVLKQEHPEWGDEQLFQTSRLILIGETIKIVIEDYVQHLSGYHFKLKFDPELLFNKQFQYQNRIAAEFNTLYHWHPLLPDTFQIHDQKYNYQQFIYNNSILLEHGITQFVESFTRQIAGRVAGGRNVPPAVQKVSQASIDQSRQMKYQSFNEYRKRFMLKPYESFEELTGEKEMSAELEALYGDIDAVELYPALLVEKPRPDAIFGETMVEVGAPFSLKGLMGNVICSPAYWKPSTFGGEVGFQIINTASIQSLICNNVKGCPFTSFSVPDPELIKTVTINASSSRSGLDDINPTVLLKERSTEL
The test can be described thus: Inhibition of COX2 in human whole blood assessed as PGE2 level incubated for 15 mins prior to substrate addition measured after 10 mins by ELISA.

For test [2], the target named is T1, Prostaglandin G/H synthase 2. The test can be described thus: Inhibition of COX2 in human fetal fibroblast assessed as inhibition of IL-1beta-mediated PGE2 production after 50 mins by ELISA.
Test [3] has the same target. Put plainly: Inhibition of COX2 in human whole blood assessed as LPS-induced PGE2 production incubated 15 mins prior to LPS challenge measured after 24 hrs by EIA.
In test [4] the target is T2, Prostaglandin G/H synthase 2 (Canis lupus familiaris, UniProt Q8SPQ9).
T2 sequence (Q8SPQ9 whole entry): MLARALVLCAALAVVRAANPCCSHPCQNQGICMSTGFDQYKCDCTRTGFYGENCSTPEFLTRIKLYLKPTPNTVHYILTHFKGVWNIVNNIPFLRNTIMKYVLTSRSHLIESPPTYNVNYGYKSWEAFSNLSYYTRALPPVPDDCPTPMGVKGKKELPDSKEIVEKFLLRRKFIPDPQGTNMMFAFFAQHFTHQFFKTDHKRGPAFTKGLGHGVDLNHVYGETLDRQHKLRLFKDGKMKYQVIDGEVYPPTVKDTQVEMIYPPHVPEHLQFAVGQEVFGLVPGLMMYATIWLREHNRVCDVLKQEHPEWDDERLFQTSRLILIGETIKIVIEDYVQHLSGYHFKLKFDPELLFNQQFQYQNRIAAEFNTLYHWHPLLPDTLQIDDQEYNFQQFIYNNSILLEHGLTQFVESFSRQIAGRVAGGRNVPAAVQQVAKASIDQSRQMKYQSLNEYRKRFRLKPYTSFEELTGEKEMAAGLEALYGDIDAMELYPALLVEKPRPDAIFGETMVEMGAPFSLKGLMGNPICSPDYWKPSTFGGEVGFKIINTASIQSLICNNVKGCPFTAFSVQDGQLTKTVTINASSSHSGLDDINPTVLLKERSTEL
The test can be described thus: Inhibition of COX2 in dog whole blood assessed as LPS-induced PGE2 production.

Test [5] addresses T3, Prostaglandin G/H synthase 2 (Rattus norvegicus, UniProt P35355).
T3 sequence (P35355 whole entry): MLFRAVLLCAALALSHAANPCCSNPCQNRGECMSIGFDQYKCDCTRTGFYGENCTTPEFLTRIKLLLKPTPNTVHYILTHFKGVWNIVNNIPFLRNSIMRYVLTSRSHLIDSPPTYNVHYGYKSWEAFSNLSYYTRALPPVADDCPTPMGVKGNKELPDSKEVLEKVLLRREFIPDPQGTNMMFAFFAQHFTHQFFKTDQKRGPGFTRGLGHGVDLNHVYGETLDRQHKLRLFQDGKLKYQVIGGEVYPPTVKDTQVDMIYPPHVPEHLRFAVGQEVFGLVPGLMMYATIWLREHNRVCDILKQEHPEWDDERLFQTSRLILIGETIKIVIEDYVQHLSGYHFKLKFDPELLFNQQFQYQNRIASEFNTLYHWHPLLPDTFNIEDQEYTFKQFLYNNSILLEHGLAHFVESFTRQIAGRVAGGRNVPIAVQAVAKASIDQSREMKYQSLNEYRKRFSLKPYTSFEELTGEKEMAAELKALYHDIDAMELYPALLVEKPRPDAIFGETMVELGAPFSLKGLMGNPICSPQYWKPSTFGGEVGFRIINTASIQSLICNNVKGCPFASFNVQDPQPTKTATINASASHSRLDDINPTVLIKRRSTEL
Put plainly: Inhibition of COX2 in rat synovial fibroblast assessed as inhibition of IL-1-mediated PGE2 production.

Some results are limits rather than exact numbers.

`O=C(N[C@H]1CCC[C@@H]1OCc1ccccc1)C1CCN(c2nc3cc(Cl)ccc3o2)CC1`: the 50% inhibitory concentration (IC50) – broadly, the point on the concentration scale where inhibition reaches its midpoint – in test [1] is 7560 nM; in test [2] it was 35 nM; in test [3], 934 nM; in test [4], 1230 nM; in test [5], greater than 30000 nM.
As for `O=C(NC1CCCC1)C1CCN(c2nc3cc(Cl)ccc3o2)CC1`, the 50% inhibitory concentration (IC50) in test [2] was 1010 nM.
Take `O=C(N[C@@H]1CCC[C@H]1OCc1ccccc1)C1CCN(c2nc3cc(Cl)ccc3o2)CC1`: the IC50 in test [1] worked out at 27400 nM; in test [2], 296 nM.
The corresponding values for `O=C(N[C@H]1CCC[C@H]1OCc1ccccc1)C1CCN(c2nc3cc(Cl)ccc3o2)CC1` are 76600 nM and 618 nM.
Consider `O=C(N[C@H]1CCC[C@@H]1COc1ccccc1)C1CCN(c2nc3cc(Cl)ccc3o2)CC1`, for which the IC50 in test [1] was greater than 33600 nM; in test [2], 85 nM.
On to `O=C(N[C@H]1CC[C@@H](CO)CC1)C1CCN(c2nc3cc(Cl)ccc3o2)CC1`, for which the IC50 is 11100 nM in test [1] and 1260 nM in test [2].
For `O=C(N[C@H]1CC[C@H](CO)CC1)C1CCN(c2nc3cc(Cl)ccc3o2)CC1`, the concentration for half-maximal inhibition (IC50) in test [2] was greater than 10000 nM.
